From patent US20230346827A1 (priority 2020, published 2023)

System: rats subjected to sTBI
Assay: sTBI rats, LMW-DS 1, 5, 15 mg/kg s.c. 30 min post-TBI: HPLC of brain free amino acids (Example 4)
Format: in vivo, rat
[1] = 15 mg/kg repeated, 7 d post-sTBI

sodium salt of dextran sulfate [LMW-DS] was tested, and the ALA (1 mg/kg, 2 d post-sTBI) was 0.76 ± 0.08 nmol/g w.w, the ARG (1 mg/kg, 2 d post-sTBI) was 0.13 ± 0.03 nmol/g w.w and the ASN (1 mg/kg, 2 d post-sTBI) was 0.13 ± 0.02 nmol/g w.w. For the same substance, the ASP (1 mg/kg, 2 d post-sTBI) was 4.17 ± 0.99 nmol/g w.w, the CITR (1 mg/kg, 2 d post-sTBI) was 0.01 ± 0.01 nmol/g w.w and the GABA (1 mg/kg, 2 d post-sTBI) was 1.87 ± 0.17 µmol/g w.w. For the same substance, the GLN (1 mg/kg, 2 d post-sTBI) was 4.37 ± 0.59 nmol/g w.w, the GLU (1 mg/kg, 2 d post-sTBI) was 12.52 ± 0.91 nmol/g w.w and the GLY (1 mg/kg, 2 d post-sTBI) was 1.35 ± 0.26 nmol/g w.w. For the same substance, the HYS (1 mg/kg, 2 d post-sTBI) was 0.08 ± 0.01 nmol/g w.w, the ILE (1 mg/kg, 2 d post-sTBI) was 0.10 ± 0.02 nmol/g w.w and the L-Cystat (1 mg/kg, 2 d post-sTBI) was 0.25 ± 0.05 nmol/g w.w. The LEU (1 mg/kg, 2 d post-sTBI) was 0.09 ± 0.02 nmol/g w.w, the LYS (1 mg/kg, 2 d post-sTBI) was 0.29 ± 0.11 nmol/g w.w and the MET (1 mg/kg, 2 d post-sTBI) was 0.04 ± 0.01 nmol/g w.w. For the same substance, the ORN (1 mg/kg, 2 d post-sTBI) was 0.02 ± 0.01 nmol/g w.w, the PHE (1 mg/kg, 2 d post-sTBI) was 0.07 ± 0.03 nmol/g w.w and the SAH (1 mg/kg, 2 d post-sTBI) was 0.07 ± 0.02 nmol/g w.w. It also gave an SER (1 mg/kg, 2 d post-sTBI) of 0.91 ± 0.07 nmol/g w.w, a TAU (1 mg/kg, 2 d post-sTBI) of 4.98 ± 0.47 nmol/g w.w and a THR (1 mg/kg, 2 d post-sTBI) of 0.70 ± 0.15 nmol/g w.w. The TRP (1 mg/kg, 2 d post-sTBI) was 0.02 ± 0.01 nmol/g w.w, the TYR (1 mg/kg, 2 d post-sTBI) was 0.18 ± 0.03 nmol/g w.w and the VAL (1 mg/kg, 2 d post-sTBI) was 0.07 ± 0.03 nmol/g w.w. For the same substance, the ALA (1 mg/kg, 7 d post-sTBI) was 0.57 ± 0.06 nmol/g w.w, the ARG (1 mg/kg, 7 d post-sTBI) was 0.13 ± 0.02 nmol/g w.w and the ASN (1 mg/kg, 7 d post-sTBI) was 0.10 ± 0.02 nmol/g w.w. The ASP (1 mg/kg, 7 d post-sTBI) was 4.17 ± 0.67 nmol/g w.w, the CITR (1 mg/kg, 7 d post-sTBI) was 0.03 ± 0.01 nmol/g w.w and the GABA (1 mg/kg, 7 d post-sTBI) was 1.73 ± 0.18 µmol/g w.w. For the same substance, the GLN (1 mg/kg, 7 d post-sTBI) was 4.10 ± 0.42 nmol/g w.w, the GLU (1 mg/kg, 7 d post-sTBI) was 12.14 ± 1.02 nmol/g w.w and the GLY (1 mg/kg, 7 d post-sTBI) was 0.98 ± 0.20 nmol/g w.w. It also gave a L-Cystat (1 mg/kg, 7 d post-sTBI) of 0.24 ± 0.04 nmol/g w.w, an MET (1 mg/kg, 7 d post-sTBI) of 0.03 ± 0.01 nmol/g w.w and an ORN (1 mg/kg, 7 d post-sTBI) of 0.01 ± 0.01 nmol/g w.w. It also gave an SAH (1 mg/kg, 7 d post-sTBI) of 0.04 ± 0.01 nmol/g w.w, an SER (1 mg/kg, 7 d post-sTBI) of 0.92 ± 0.16 nmol/g w.w and a THR (1 mg/kg, 7 d post-sTBI) of 0.71 ± 0.12 nmol/g w.w. It also gave an ALA (5 mg/kg, 2 d post-sTBI) of 0.79 ± 0.08 nmol/g w.w, an ARG (5 mg/kg, 2 d post-sTBI) of 0.13 ± 0.03 nmol/g w.w and an ASN (5 mg/kg, 2 d post-sTBI) of 0.17 ± 0.03 nmol/g w.w. It also gave an ASP (5 mg/kg, 2 d post-sTBI) of 4.15 ± 0.95 nmol/g w.w, a CITR (5 mg/kg, 2 d post-sTBI) of 0.02 ± 0.01 nmol/g w.w and a GABA (5 mg/kg, 2 d post-sTBI) of 1.99 ± 0.18 µmol/g w.w. For the same substance, the GLN (5 mg/kg, 2 d post-sTBI) was 4.55 ± 0.44 nmol/g w.w, the GLU (5 mg/kg, 2 d post-sTBI) was 11.93 ± 0.55 nmol/g w.w and the GLY (5 mg/kg, 2 d post-sTBI) was 1.43 ± 0.28 nmol/g w.w. It also gave an HYS (5 mg/kg, 2 d post-sTBI) of 0.11 ± 0.02 nmol/g w.w, an ILE (5 mg/kg, 2 d post-sTBI) of 0.10 ± 0.02 nmol/g w.w and a L-Cystat (5 mg/kg, 2 d post-sTBI) of 0.31 ± 0.06 nmol/g w.w. For the same substance, the LEU (5 mg/kg, 2 d post-sTBI) was 0.10 ± 0.02 nmol/g w.w, the LYS (5 mg/kg, 2 d post-sTBI) was 0.37 ± 0.14 nmol/g w.w and the MET (5 mg/kg, 2 d post-sTBI) was 0.05 ± 0.01 nmol/g w.w. It also gave an ORN (5 mg/kg, 2 d post-sTBI) of 0.01 ± 0.01 nmol/g w.w, a PHE (5 mg/kg, 2 d post-sTBI) of 0.07 ± 0.03 nmol/g w.w and an SAH (5 mg/kg, 2 d post-sTBI) of 0.07 ± 0.02 nmol/g w.w. For the same substance, the SER (5 mg/kg, 2 d post-sTBI) was 0.91 ± 0.07 nmol/g w.w, the TAU (5 mg/kg, 2 d post-sTBI) was 5.15 ± 0.49 nmol/g w.w and the THR (5 mg/kg, 2 d post-sTBI) was 0.77 ± 0.17 nmol/g w.w. For the same substance, the TRP (5 mg/kg, 2 d post-sTBI) was 0.03 ± 0.01 nmol/g w.w, the TYR (5 mg/kg, 2 d post-sTBI) was 0.20 ± 0.03 nmol/g w.w and the VAL (5 mg/kg, 2 d post-sTBI) was 0.08 ± 0.03 nmol/g w.w. It also gave an ALA (5 mg/kg, 7 d post-sTBI) of 0.44 ± 0.05 nmol/g w.w, an ARG (5 mg/kg, 7 d post-sTBI) of 0.15 ± 0.02 nmol/g w.w and an ASN (5 mg/kg, 7 d post-sTBI) of 0.10 ± 0.02 nmol/g w.w. For the same substance, the ASP (5 mg/kg, 7 d post-sTBI) was 3.63 ± 0.59 nmol/g w.w, the CITR (5 mg/kg, 7 d post-sTBI) was 0.03 ± 0.01 nmol/g w.w and the GABA (5 mg/kg, 7 d post-sTBI) was 1.63 ± 0.17 µmol/g w.w. For the same substance, the GLN (5 mg/kg, 7 d post-sTBI) was 3.86 ± 0.40 nmol/g w.w, the GLU (5 mg/kg, 7 d post-sTBI) was 11.82 ± 0.99 nmol/g w.w and the GLY (5 mg/kg, 7 d post-sTBI) was 0.88 ± 0.15 nmol/g w.w. For the same substance, the L-Cystat (5 mg/kg, 7 d post-sTBI) was 0.26 ± 0.04 nmol/g w.w, the MET (5 mg/kg, 7 d post-sTBI) was 0.04 ± 0.01 nmol/g w.w and the ORN (5 mg/kg, 7 d post-sTBI) was 0.01 ± 0.01 nmol/g w.w. For the same substance, the SAH (5 mg/kg, 7 d post-sTBI) was 0.04 ± 0.01 nmol/g w.w, the SER (5 mg/kg, 7 d post-sTBI) was 0.83 ± 0.14 nmol/g w.w and the THR (5 mg/kg, 7 d post-sTBI) was 0.71 ± 0.15 nmol/g w.w. The ALA [1] was 0.47 ± 0.05 nmol/g w.w, the ARG [1] was 0.19 ± 0.02 nmol/g w.w and the ASN [1] was 0.10 ± 0.02 nmol/g w.w. For the same substance, the ASP [1] was 2.42 ± 0.39 nmol/g w.w, the CITR [1] was 0.03 ± 0.01 nmol/g w.w and the GABA [1] was 1.38 ± 0.14 µmol/g w.w.
